Broadly, the IC50 is the concentration at which inhibition is half-maximal. Lower therefore signals higher potency.

The structures appear in SMILES notation.

The results in this text go back to patent US12371428B2 (Exelixis, Inc., priority 2019, dated 2025).

The target in test [1] is KDR (phospho-KDR, VEGF165-stimulated HUVEC cells) (Homo sapiens (Human), UniProt P35968). The experiment in a line: KDR autophosphorylation ELISA in HUVEC cells (Example G). As to conditions: cellular activity; KDR autophosphorylation ELISA in HUVEC cells. The format is cell-based. The method, boiled down:
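HUVECs were serum-starved 24 h, given compound as an 8-point dilution series (0.3% DMSO final) for 1 h, then stimulated with 100 ng/mL VEGF165 for 5 min. Lysate phospho-KDR was quantified by sandwich ELISA against a phospho-KDR standard, and IC50s came from a 4-parameter logistic fit.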

Test [2] concerns the target Human KDR (residues 790-1356) (Homo sapiens (Human), UniProt P35968). The experiment in a line: Human KDR kinase assay, HTRF KinEase (Example B-2). As to conditions: protocol of Example B-2 (other compounds). The format is biochemical. The method, boiled down: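 Human KDR residues 790-1356 (0.1 ng/well) in buffer with 5 mM MgCl2, 1 mM MnCl2, 1 mM DTT, biotinylated peptide substrate, ATP at Km (4.0 μM), 3% DMSO, 10 compound concentrations; 40 min, room temperature. EDTA stop, streptavidin-XL665/Eu-TK antibody HTRF read 665/620 nm; 4-parameter IC50.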

Human KDR (residues 790-1356), sequence (P35968 790-1356): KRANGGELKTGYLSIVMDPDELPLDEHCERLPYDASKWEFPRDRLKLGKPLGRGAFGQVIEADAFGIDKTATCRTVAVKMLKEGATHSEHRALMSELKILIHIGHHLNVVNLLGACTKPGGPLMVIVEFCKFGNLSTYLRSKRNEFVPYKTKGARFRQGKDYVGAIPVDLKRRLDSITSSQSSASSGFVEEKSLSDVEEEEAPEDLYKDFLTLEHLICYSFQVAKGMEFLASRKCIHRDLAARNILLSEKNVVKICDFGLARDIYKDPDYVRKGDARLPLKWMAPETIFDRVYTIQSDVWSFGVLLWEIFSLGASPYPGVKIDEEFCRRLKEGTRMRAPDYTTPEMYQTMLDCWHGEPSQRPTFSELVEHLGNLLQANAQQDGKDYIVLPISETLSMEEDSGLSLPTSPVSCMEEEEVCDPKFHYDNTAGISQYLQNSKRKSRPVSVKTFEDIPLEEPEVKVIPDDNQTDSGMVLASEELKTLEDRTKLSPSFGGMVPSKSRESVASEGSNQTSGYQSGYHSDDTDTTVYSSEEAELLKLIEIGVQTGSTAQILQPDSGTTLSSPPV
KDR (phospho-KDR, VEGF165-stimulated HUVEC cells), sequence (P35968 20-1356): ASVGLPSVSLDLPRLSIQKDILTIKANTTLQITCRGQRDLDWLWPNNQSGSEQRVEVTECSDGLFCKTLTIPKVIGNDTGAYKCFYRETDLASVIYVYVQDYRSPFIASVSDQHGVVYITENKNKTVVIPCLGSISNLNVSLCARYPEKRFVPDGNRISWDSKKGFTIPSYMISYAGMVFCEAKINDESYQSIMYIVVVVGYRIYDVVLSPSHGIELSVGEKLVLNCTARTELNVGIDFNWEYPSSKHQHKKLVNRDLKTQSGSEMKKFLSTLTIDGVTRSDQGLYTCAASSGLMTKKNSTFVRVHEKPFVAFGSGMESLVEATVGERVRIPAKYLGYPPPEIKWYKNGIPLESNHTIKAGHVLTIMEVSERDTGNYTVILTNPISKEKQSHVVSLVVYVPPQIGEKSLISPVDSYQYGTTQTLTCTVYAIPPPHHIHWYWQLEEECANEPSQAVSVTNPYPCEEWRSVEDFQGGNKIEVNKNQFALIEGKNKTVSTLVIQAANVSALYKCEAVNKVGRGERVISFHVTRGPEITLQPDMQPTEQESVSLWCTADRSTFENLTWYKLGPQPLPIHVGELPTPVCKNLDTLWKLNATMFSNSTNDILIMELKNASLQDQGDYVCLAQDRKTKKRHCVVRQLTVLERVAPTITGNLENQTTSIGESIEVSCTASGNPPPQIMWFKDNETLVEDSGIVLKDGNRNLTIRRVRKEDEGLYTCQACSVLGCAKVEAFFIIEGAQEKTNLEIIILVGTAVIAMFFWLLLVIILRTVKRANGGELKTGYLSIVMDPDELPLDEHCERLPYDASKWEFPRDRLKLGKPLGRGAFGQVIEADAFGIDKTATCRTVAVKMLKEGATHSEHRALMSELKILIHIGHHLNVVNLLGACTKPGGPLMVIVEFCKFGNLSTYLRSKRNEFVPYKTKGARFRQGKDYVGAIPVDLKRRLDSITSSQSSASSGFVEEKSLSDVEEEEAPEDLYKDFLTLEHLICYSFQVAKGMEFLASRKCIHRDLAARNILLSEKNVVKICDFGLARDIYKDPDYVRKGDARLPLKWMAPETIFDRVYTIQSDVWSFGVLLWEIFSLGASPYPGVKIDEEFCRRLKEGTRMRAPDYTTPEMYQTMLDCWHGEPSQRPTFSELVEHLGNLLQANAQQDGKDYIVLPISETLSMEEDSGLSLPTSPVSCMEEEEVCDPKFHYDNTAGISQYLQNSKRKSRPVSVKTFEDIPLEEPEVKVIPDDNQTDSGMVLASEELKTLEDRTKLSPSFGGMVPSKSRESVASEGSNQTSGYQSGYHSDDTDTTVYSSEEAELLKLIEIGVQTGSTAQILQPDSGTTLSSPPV

For the molecule `COc1cc2nccc(Oc3ccc(NC(=O)c4cn(C(C)C)c(C)c(-c5ccc(F)cc5)c4=O)cc3F)c2nc1Br` [Compound 143, N-[4-[(6-Bromo-7-methoxy-1,5-naphthyridin-4-yl)oxy]-3-fluorophenyl]-5-(4-fluorophenyl)-6-methyl-4-oxo-1-propan-2-ylpyridine-3-carboxamide], the IC50 in test [1] was 100 to 300 nM; in test [2] it was more than 300 nM.
In the case of `COCCOc1nc2c(Oc3ccc(NC(=O)c4cnc(C)c(-c5ccc(F)cc5C)c4O)cc3F)ccnc2cc1OC` [Compound 144, N-[3-Fluoro-4-[[7-methoxy-6-(2-methoxyethoxy)-1,5-naphthyridin-4-yl]oxy]phenyl]-5-(4-fluoro-2-methylphenyl)-4-hydroxy-6-methylpyridine-3-carboxamide], the IC50 in test [1] and in test [2] was less than 100 nM throughout.
With `COc1cnc2c(Oc3ccc(NC(=O)c4cncc(-c5ccc(F)cc5)c4O)cc3)ccnc2c1` [Compound 146, 5-(4-Fluorophenyl)-4-hydroxy-N-[4-[(7-methoxy-1,5-naphthyridin-4-yl)oxy]phenyl]pyridine-3-carboxamide], the half-maximal inhibitory concentration (IC50) in test [1] and in test [2] was less than 100 nM each time.
Turning to `COc1cnc2c(Oc3ccc(NC(=O)c4cn(C(C)C)c(C)c(-c5ccc(F)cc5)c4=O)cc3)ccnc2c1` [Compound 148, 5-(4-Fluorophenyl)-N-[4-[(7-methoxy-1,5-naphthyridin-4-yl)oxy]phenyl]-6-methyl-4-oxo-1-propan-2-ylpyridine-3-carboxamide], the IC50 in test [1] and in test [2] was more than 300 nM throughout.
As to `Cc1ncc(C(=O)Nc2ccc(Oc3ccnc4cc(C(F)(F)F)cnc34)c(F)c2)c(O)c1-c1ccc(F)cc1` [Compound 151, 5-(4-Fluorophenyl)-N-[3-fluoro-4-[[7-(trifluoromethyl)-1,5-naphthyridin-4-yl]oxy]phenyl]-4-hydroxy-6-methylpyridine-3-carboxamide], the IC50 in test [1] is less than 100 nM; in test [2], more than 300 nM.
Regarding `Cc1nc2c(Oc3ccc(NC(=O)c4cn(C(C)C)c(C)c(-c5ccc(F)cc5)c4=O)cc3F)ccnc2cc1Br` [Compound 153, N-[4-[(7-Bromo-6-methyl-1,5-naphthyridin-4-yl)oxy]-3-fluorophenyl]-5-(4-fluorophenyl)-6-methyl-4-oxo-1-propan-2-ylpyridine-3-carboxamide], the IC50 in test [1] and in test [2] was more than 300 nM throughout.
Turning to `COc1cc2nccc(Oc3ccc(NC(=O)c4cnc(C(C)(C)C)c(-c5ccc(F)cc5)c4O)cc3F)c2nc1OC` [Compound 155, 6-tert-Butyl-N-[4-[(6,7-dimethoxy-1,5-naphthyridin-4-yl)oxy]-3-fluorophenyl]-5-(4-fluorophenyl)-4-hydroxypyridine-3-carboxamide], the IC50 in test [1] and in test [2] was more than 300 nM throughout.
With `COc1cnc2c(Oc3ccc(NC(=O)c4cn(C)c(C)c(-c5ccc(F)cc5)c4=O)cc3F)ccnc2c1` [Compound 156, N-[3-Fluoro-4-[(7-methoxy-1,5-naphthyridin-4-yl)oxy]phenyl]-5-(4-fluorophenyl)-1,6-dimethyl-4-oxopyridine-3-carboxamide], the half-inhibitory concentration (IC50) in test [1] and in test [2] was more than 300 nM each time.
Regarding `COc1cc2nccc(Oc3ccc(NC(=O)c4cn(CCN5CCOCC5)cc(-c5ccc(F)cc5)c4=O)cc3F)c2nc1OC` [Compound 157, N-[4-[(6,7-Dimethoxy-1,5-naphthyridin-4-yl)oxy]-3-fluorophenyl]-5-(4-fluorophenyl)-1-(2-morpholin-4-ylethyl)-4-oxopyridine-3-carboxamide], the 50% inhibitory concentration (IC50) is 100 to 300 nM in test [1] and more than 300 nM in test [2].
For `Cc1c(-c2ccc(F)cc2)c(=O)c(C(=O)Nc2ccc(Oc3ccnc4cc(F)cnc34)c(F)c2)cn1C(C)C` [Compound 162, N-[3-Fluoro-4-[(7-fluoro-1,5-naphthyridin-4-yl)oxy]phenyl]-5-(4-fluorophenyl)-6-methyl-4-oxo-1-propan-2-ylpyridine-3-carboxamide], the IC50 in test [1] and in test [2] was more than 300 nM in each case.
In the case of `CCn1cc(C(=O)Nc2ccc(Oc3ccnc4cc(OC)cnc34)cc2)c(=O)c(-c2ccc(F)cc2)c1C` [Compound 163, 1-Ethyl-5-(4-fluorophenyl)-N-[4-[(7-methoxy-1,5-naphthyridin-4-yl)oxy]phenyl]-6-methyl-4-oxopyridine-3-carboxamide], the IC50 in test [1] and in test [2] was more than 300 nM throughout.
Take `CCn1cc(C(=O)Nc2ccc(Oc3ccnc4cc(OC)cnc34)c(F)c2)c(=O)c(-c2ccc(F)cc2)c1C` [Compound 164, 1-Ethyl-N-[3-fluoro-4-[(7-methoxy-1,5-naphthyridin-4-yl)oxy]phenyl]-5-(4-fluorophenyl)-6-methyl-4-oxopyridine-3-carboxamide]: the IC50 in test [1] and in test [2] was more than 300 nM throughout.
For the molecule `COc1cnc2c(Oc3ccc(NC(=O)c4cn(C(C)(C)C)c(C)c(-c5ccc(F)cc5)c4=O)cc3F)ccnc2c1` [Compound 166, 1-tert-Butyl-N-[3-fluoro-4-[(7-methoxy-1,5-naphthyridin-4-yl)oxy]phenyl]-5-(4-fluorophenyl)-6-methyl-4-oxopyridine-3-carboxamide], the half-maximal inhibitory concentration (IC50) in test [1] and in test [2] was more than 300 nM each time.
Turning to `CCn1cc(C(=O)Nc2ccc(Oc3ccnc4cc(OC)c(OC)nc34)cc2)c(=O)c(-c2ccc(F)cc2)c1` [Compound 167, N-[4-[(6,7-Dimethoxy-1,5-naphthyridin-4-yl)oxy]phenyl]-1-ethyl-5-(4-fluorophenyl)-4-oxopyridine-3-carboxamide], the IC50 in test [1] is less than 100 nM; in test [2], 100 to 300 nM.
For `CCn1cc(C(=O)Nc2ccc(Oc3ccnc4cc(OC)c(OC)nc34)cc2)c(=O)c(-c2ccc(F)cc2)c1C` [Compound 168, N-[4-[(6,7-Dimethoxy-1,5-naphthyridin-4-yl)oxy]phenyl]-1-ethyl-5-(4-fluorophenyl)-6-methyl-4-oxopyridine-3-carboxamide] the same measures were 100 to 300 nM and 100 to 300 nM.
The like results for `CCn1cc(C(=O)Nc2ccc(Oc3ccnc4cc(OC)cnc34)cc2)c(=O)c(-c2ccc(F)cc2)c1` [Compound 169, 1-Ethyl-5-(4-fluorophenyl)-N-[4-[(7-methoxy-1,5-naphthyridin-4-yl)oxy]phenyl]-4-oxopyridine-3-carboxamide] were, in that order, more than 300 nM and more than 300 nM.
For `CCn1cc(C(=O)Nc2ccc(Oc3ccnc4cc(OC)cnc34)c(F)c2)c(=O)c(-c2ccc(F)cc2)c1` [Compound 170, 1-Ethyl-N-[3-fluoro-4-[(7-methoxy-1,5-naphthyridin-4-yl)oxy]phenyl]-5-(4-fluorophenyl)-4-oxopyridine-3-carboxamide] the same measures were more than 300 nM and more than 300 nM.
Regarding `COc1cc2nccc(Oc3ccc(NC(=O)c4cnc(C)c(-c5ccc(F)cc5)c4O)cc3)c2cc1OC` [Compound 171, N-[4-(6,7-Dimethoxyquinolin-4-yl)oxyphenyl]-5-(4-fluorophenyl)-4-hydroxy-6-methylpyridine-3-carboxamide], the IC50 in test [1] and in test [2] was less than 100 nM throughout.
For `COc1ccc2nccc(Oc3ccc(NC(=O)c4cnc(C)c(-c5ccc(F)cc5)c4O)cc3F)c2n1` [Compound 172, N-[3-Fluoro-4-[(6-methoxy-1,5-naphthyridin-4-yl)oxy]phenyl]-5-(4-fluorophenyl)-4-hydroxy-6-methylpyridine-3-carboxamide], the IC50 is less than 100 nM in test [1] and 100 to 300 nM in test [2].
